Measured values: patent US20250346602A1, “LACTAM SUBSTITUTED IMIDAZOPYRIDAZINE IL-17A MODULATORS AND USES THEREOF” (DICE ALPHA, INC., priority 2022, published 2025)

Biological target: T1, IL-17A/A (Homo sapiens, UniProt Q16552)
T1 construct: purchased Genscript Z03228
T1 sequence (Q16552 24-155): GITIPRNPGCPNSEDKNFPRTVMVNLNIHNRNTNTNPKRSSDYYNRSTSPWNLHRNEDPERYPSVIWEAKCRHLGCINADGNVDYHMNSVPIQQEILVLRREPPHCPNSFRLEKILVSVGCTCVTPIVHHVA
Assay: IL-17A/A HEK-Blue cell assay
Type: cell-based
Settings: HEK-Blue IL-17A reporter cell line (HEK 293), IL-17A/A stimulation, 20 hours incubation, SEAP read at A630
Procedure, shortened: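 HEK293 reporter cells expressing IL-17RA, IL-17RC and Act1 were given titrated compound (top final 10, 1 or 0.3 uM; 0.1% DMSO) right before IL-17A/A and incubated 20 hours. NFκB-driven SEAP in the media was read at A630 with Quanti-Blue, and IC50 came from a 4-parameter nonlinear fit.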

IC50 [nM] | Compound
> 1000 | CCn1nccc1C(=O)NC(c1cn2nc(CC3C(=O)NCC4CC43)ccc2n1)C1CCC(C)CC1 (single isomer, unassigned) [Compound 47]
100 to 1000 | CCn1nccc1C(=O)N[C@H](c1cn2nc(CC3C[C@@H](C(F)(F)F)CNC3=O)c(C(=O)O)cc2n1)C1CCC(F)(F)CC1 (stereo partly drawn) [Compound 187, 2-((S)-(4,4-difluorocyclohexyl)(1-ethyl-1H-pyrazole-5-carboxamido)methyl)-6-(((5R)-2-oxo-5-(trifluoromethyl)piperidin-3-yl)methyl)imidazo[1,2-b]pyridazine-7-carboxylic acid]
100 to 1000 | CCn1nccc1C(=O)N[C@H](c1cn2nc(CC3CC(CC(F)(F)F)CNC3=O)ccc2n1)C1CCC(F)(F)CC1 (single isomer, unassigned) [Compound 65]
< 100 | CCN(C)c1cc2nc([C@@H](NC(=O)c3ccnn3CC)C3CCC(F)(F)CC3)cn2nc1CC1C[C@@H](C(F)(F)F)CNC1=O (single isomer, unassigned) [Compound 89]
< 100 | O=C(N[C@H](c1cn2ncc(CC3C[C@@H](C(F)(F)F)NC3=O)cc2n1)C1CCC(F)(F)CC1)c1conc1C(F)(F)F (single isomer, unassigned) [Compound 215]
> 1000 | Cn1nc(C(F)F)cc1C(=O)N[C@H](c1cn2nc(CC3C[C@@H](C(F)(F)F)CNC3=O)ccc2n1)C1CCC(F)(F)CC1 (stereo partly drawn) [Compound 129, N-((1S)-(4,4-difluorocyclohexyl)(6-(((5R)-2-oxo-5-(trifluoromethyl)piperidin-3-yl)methyl)imidazo[1,2-b]pyridazin-2-yl)methyl)-3-(difluoromethyl)-1-methyl-1H-pyrazole-5-carboxamide]
100 to 1000 | O=C(N[C@H](c1cn2nc(CC3C[C@@H](C(F)(F)F)CNC3=O)ccc2n1)C1CCC(F)(F)CC1)c1ccnn1CCF (stereo partly drawn) [Compound 101, N-((1S)-(4,4-difluorocyclohexyl)(6-(((5R)-2-oxo-5-(trifluoromethyl)piperidin-3-yl)methyl)imidazo[1,2-b]pyridazin-2-yl)methyl)-1-(2-fluoroethyl)-1H-pyrazole-5-carboxamide]
> 1000 | CCn1nccc1C(=O)N[C@H](c1cn2ncc(CC3C[C@H](C(F)(F)F)CNC3=O)cc2n1)C(C1CC1)C1CC1 (single isomer, unassigned) [Compound 209]
> 1000 | CCn1nccc1C(=O)N[C@H](c1cn2nc(CC3CC(F)(F)CNC3=O)c(NC)cc2n1)C1CCC(F)(F)CC1 (single isomer, unassigned) [Compound 74]
100 to 1000 | CCn1nccc1C(=O)N[C@H](c1cn2ncc(CC3C[C@@H](C(F)(F)F)CNC3=O)cc2n1)C(C1CC1)C1CC1 (single isomer, unassigned) [Compound 208]
100 to 1000 | Cn1nccc1C(=O)N[C@H](c1cn2nc(CC3C[C@@H](C(F)(F)F)CNC3=O)ccc2n1)[C@H]1CC[C@H](C)CC1 (stereo partly drawn) [Compound 162, 1-methyl-N-((1S)-((1R.4S)-4-methylcyclohexyl)(6-(((5R)-2-oxo-5-(trifluoromethyl)piperidin-3-yl)methyl)imidazo[1,2-b]pyridazin-2-yl)methyl)-1H-pyrazole-5-carboxamide]
< 100 | CC(C)n1nccc1C(=O)N[C@H](c1cn2nc(CC3C[C@H](C(F)(F)F)CNC3=O)ccc2n1)[C@H]1CCCC(F)(F)C1 (stereo partly drawn) [Compound 159, N-((1S)—((S)-3,3-difluorocyclohexyl)(6-(((5S)-2-oxo-5-(trifluoromethyl)piperidin-3-yl)methyl)imidazo[1,2-b]pyridazin-2-yl)methyl)-1-isopropyl-1H-pyrazole-5-carboxamide]
> 1000 | CCn1nccc1C(=O)N[C@H](c1cn2nc(CC3CC(F)(F)CNC3=O)ccc2n1)C1CCC(F)(F)CC1 (single isomer, unassigned) [Compound 24]
> 1000 | Cc1nonc1C(=O)N[C@H](c1cn2nc(CC3CCCNC3=O)ccc2n1)C1CCCCCC1 (stereo partly drawn) [Compound 2, N-((1S)-cycloheptyl(6-((2-oxopiperidin-3-yl)methyl)imidazo[1,2-b]pyridazin-2-yl)methyl)-4-methyl-1,2,5-oxadiazole-3-carboxamide]
100 to 1000 | CCn1nccc1C(=O)N[C@H](c1cn2nc(CC3CC4(CC4)CNC3=O)ccc2n1)[C@H]1CC[C@H](C)CC1 (single isomer, unassigned) [Compound 64]
> 1000 | CCn1nccc1C(=O)NC(c1cn2ncc(CC3CCC(C(F)(F)F)NC3=O)cc2n1)C1CCC(C)CC1 (single isomer, unassigned) [Compound 213]

IC50 [nM] | Compound
100 to 1000 | O=C(N[C@H](c1cn2nc(CC3C[C@@H](C(F)(F)F)CNC3=O)ccc2n1)C1CCC(F)(F)CC1)c1ccnn1CC(F)F (stereo partly drawn) [Compound 106, N-((1S)-(4,4-difluorocyclohexyl)(6-(((5R)-2-oxo-5-(trifluoromethyl)piperidin-3-yl)methyl)imidazo[1,2-b]pyridazin-2-yl)methyl)-1-(2,2-difluoroethyl)-1H-pyrazole-5-carboxamide]
100 to 1000 | O=C(N[C@H](c1cn2nc(CC3C[C@@H](C(F)(F)F)CNC3=O)ccc2n1)C1CCC(F)(F)CC1)c1conc1C1(C(F)(F)F)CC1 (stereo partly drawn) [Compound 138, N-((1S)-(4,4-difluorocyclohexyl)(6-(((5R)-2-oxo-5-(trifluoromethyl)piperidin-3-yl)methyl)imidazo[1,2-b]pyridazin-2-yl)methyl)-3-(1-(trifluoromethyl)cyclopropyl)isoxazole-4-carboxamide]
> 1000 | CCn1nccc1C(=O)N[C@H](c1cn2nc(CC3C[C@@H](C(F)(F)F)CNC3=O)ccc2n1)C1CC2(CC2)C1 (stereo partly drawn) [Compound 192, 1-ethyl-N—((1S)-(6-(((5R)-2-oxo-5-(trifluoromethyl)piperidin-3-yl)methyl)imidazo[1,2-b]pyridazin-2-yl)(spiro[2.3]hexan-5-yl)methyl)-1H-pyrazole-5-carboxamide]
100 to 1000 | CCn1nccc1C(=O)N[C@H](c1cn2nc(CC3C[C@@H](C(F)(F)F)CNC3=O)ccc2n1)C(C1CC1)C1CC1 (stereo partly drawn) [Compound 96, N-((1S)-2,2-dicyclopropyl-1-(6-(((5R)-2-oxo-5-(trifluoromethyl)piperidin-3-yl)methyl)imidazo[1,2-b]pyridazin-2-yl)ethyl)-1-ethyl-1H-pyrazole-5-carboxamide]
< 100 | CCn1nccc1C(=O)N[C@H](c1cn2nc(CC3CCCNC3=O)ccc2n1)C1CCCCCC1 (single isomer, unassigned) [Compound 12]
100 to 1000 | CCn1nccc1C(=O)N[C@H](c1cn2nc(CC3C(=O)NCCC3C)ccc2n1)[C@H]1CC[C@H](C)CC1 (single isomer, unassigned) [Compound 54]
< 100 | O=C(N[C@H](c1cn2ncc(CC3C[C@@H](C(F)(F)F)NC3=O)cc2n1)C1CCC(F)(F)CC1)c1nonc1C1CC1 (single isomer, unassigned) [Compound 205]
100 to 1000 | O=C(N[C@H](c1cn2nc(CC3C[C@@H](C(F)(F)F)CNC3=O)ccc2n1)C1CCC(F)(F)CC1)c1conc1C1CC1 (stereo partly drawn) [Compound 136, 3-cyclopropyl-N-((1S)-(4,4-difluorocyclohexyl)(6-(((5R)-2-oxo-5-(trifluoromethyl)piperidin-3-yl)methyl)imidazo[1,2-b]pyridazin-2-yl)methyl)isoxazole-4-carboxamide]
> 1000 | CCn1nccc1C(=O)N[C@H](c1cn2nc(CC3C[C@@H](C(F)(F)F)CNC3=O)c(C)cc2n1)C1CCC(F)(F)CC1 (single isomer, unassigned) [Compound 82]
100 to 1000 | CCn1nccc1C(=O)N[C@H](c1cn2nc(CC3C(=O)NC4CC3C4)ccc2n1)[C@H]1CC[C@H](C)CC1 (stereo partly drawn) [Compound 61, 1-ethyl-N-((1S)-((1r,4S)-4-methylcyclohexyl)(6-((3-oxo-2-azabicyclo[3.1.1]heptan-4-yl)methyl)imidazo[1,2-b]pyridazin-2-yl)methyl)-1H-pyrazole-5-carboxamide]
100 to 1000 | C[C@H]1CC[C@H]([C@H](NC(=O)c2ccnn2CCO)c2cn3nc(CC4C[C@@H](C(F)(F)F)CNC4=O)ccc3n2)CC1 (stereo partly drawn) [Compound 167, 1-(2-hydroxyethyl)-N—((S)-((1R.4S)-4-methylcyclohexyl)(6-(((3R.5R)-2-oxo-5-(trifluoromethyl)piperidin-3-yl)methyl)imidazo[1,2-b]pyridazin-2-yl)methyl)-1H-pyrazole-5-carboxamide]
> 1000 | CCn1nccc1C(=O)N[C@H](c1cn2nc(CC3C(=O)NCCC3C)ccc2n1)[C@H]1CC[C@H](C)CC1 (single isomer, unassigned) [Compound 52]
> 1000 | Cc1nonc1C(=O)N[C@H](c1cn2nc(C[C@H]3CCCNC3=O)ccc2n1)C(C1CC1)C1CC1 [Compound 36, N—((S)-2,2-dicyclopropyl-1-(6-(((R)-2-oxopiperidin-3-yl)methyl)imidazo[1,2-b]pyridazin-2-yl)ethyl)-4-methyl-1,2,5-oxadiazole-3-carboxamide]
< 100 | CCn1nccc1C(=O)N[C@H](c1cn2nc(CC3C[C@H](C(F)(F)F)CNC3=O)ccc2n1)[C@H]1CC[C@H](C)CC1 (stereo partly drawn) [Compound 154, 1-Ethyl-N-((1S)-((1R.4S)-4-methylcyclohexyl)(6-(((5S)-2-oxo-5-(trifluoromethyl)piperidin-3-yl)methyl)imidazo[1,2-b]pyridazin-2-yl)methyl)-1H-pyrazole-5-carboxamide]
100 to 1000 | CCn1nccc1C(=O)N[C@@H](c1cn2nc(CC3C[C@@H](C(F)(F)F)CNC3=O)ccc2n1)[C@@H]1C[C@H]2C[C@H]2C1 (stereo partly drawn) [Compound 171, N-((1R)-((1R,3S,5S)-bicyclo[3.1.0]hexan-3-yl)(6-(((5R)-2-oxo-5-(trifluoromethyl)piperidin-3-yl)methyl)imidazo[1,2-b]pyridazin-2-yl)methyl)-1-ethyl-1H-pyrazole-5-carboxamide]
